# Measurements published in patent publication US7148250B2, “Indoles as NAALADase inhibitors” (Guilford Pharmaceuticals Inc., priority 2001, dated 2006).
# Assays:
# [1] = system: Brown Norway rats with unilateral optic nerve transection; assay: Optic nerve transection, optic nerve fiber counting; assay type: in vivo, Rattus norvegicus; details: for FIBER NUMBER ± SEM / PERCENT DIFFERENCE ± SEM in fiber number between transected and normal eye: 10 mg/kg i.p. daily
# Method: (§1) All experiments complied with the Association for Research in Vision and Ophthalmology Statement for the Use of Animals in Ophthalmic and Vision Research. 82 male Brown Norway rats (Rattus norvegicus), each weighing approximately 250 gm, were treated using procedures approved by the Animal Care Committee of the Johns Hopkins University School of Medicine. The rats were housed with a 12 hour light/12 hour dark cycle and fed ad libitum.
# OPTIC NERVE TRANSECTION: The optic nerve was transected unilaterally in 26 rats under intraperitoneal pentobarbital anesthesia. The conjunctiva was opened with scissors and the optic nerve exposed by traction on extraocular muscles. The transection was performed with microscissors 5 mm posterior to the globe, with specific attention to avoidance of injury to major ocular blood vessels. Immediately after transection, the retina was examined ophthalmoscopically to assure that the retinal arterial blood supply was not disrupted. The conjunctiva was closed with absorbable suture and the eye dressed with antibiotic ointment. Beginning on the day of transection, the rats were treated daily with intraperitoneal injections of either a vehicle (9 rats with 50 mM HEPES-buffered saline) or a NAALADase inhibitor (8 rats with 10 mg/kg of Compound A and 9 rats with 10 mg/kg of Compound B). 5 saline treated rats, 3 Compound A treated rats and 4 Compound B treated rats were sacrificed at 2 weeks, and the remaining rats at 4 weeks, after transection.
# (§2) OPTIC NERVE COUNTING: The rats were sacrificed by exsanguination under deep pentobarbital anesthesia. They were perfused through the heart with 2% paraformaldehyde/2% glutaraldehyde in 0.1 M phosphate buffer, pH 7.2, and the eyes with attached optic nerves were removed. A cross-section of the optic nerve from both experimental (glaucoma or transection) and control eyes was removed 1.5 mm posterior to the globe, 1 mm in thickness, and post-fixed in 2% osmium tetroxide in buffer. These were processed into epoxy resin, sectioned at 1 micron and stained with toluidine blue.
# (§3) The area of the optic nerve cross-section was measured by outlining its outer border at 10× magnification on an image analysis system (Universal Imaging Corp., Westchester, Pa.) with Synsys digital camera and Metamorph software. Three area measurements were taken and the mean value was determined. To measure the density and fiber diameter distributions, images were captured with a 100× phase contrast objective from 10 different areas of each nerve. These were edited to eliminate non-neural objects and the size of each axon internal to the myelin sheath (its minimum diameter) and the density of axons/square mm were calculated for each image and nerve. The mean density was multiplied by total nerve area to yield fiber number for each nerve. The total fiber number in glaucoma or transection nerves was compared to the normal, fellow eye of each rat to yield a percent loss value. The number of axons counted among the 10 images was an approximately 20% sample of the 80–90,000 axons in normal rat nerves. The person measuring axon number was masked to the protocol conducted on the nerves.
# [2] = system: transgenic HD mice of the N171-82Q strain; assay: Transgenic mouse model of Huntington's disease (rotarod, locomotion, survival); assay type: in vivo
# Method: Transgenic HD mice of the N171-82Q strain and non-transgenic littermates were treated with NAALADase inhibitor Compound B (30 mg/kg) or a vehicle from 10 weeks of age. The mice were placed on a rotating rod (“rotarod”). The length of time at which the mouse fell off the rotarod was recorded as a measure of motor coordination. […] The treatment with Compound B had no effect on the rotarod performance of normal non-HD mice.
# The total distance traveled by the mice was also recorded as a measure of overall locomotion.
# The effects of Compound B and vehicle on the survival of transgenic HD mice (N171-82Q) were evaluated. Thirteen mice (six male and seven female) were assigned to the Compound B treatment group, and fourteen mice (six male and eight female) were assigned to the vehicle treatment group. Treatment was continued until all the mice died.
# [3] = system: Brown Norway rats with unilateral elevation of intraocular pressure; assay: Experimental rat glaucoma (IOP elevation), optic nerve fiber counting; assay type: in vivo; details: 10 mg/kg i.p. daily
# Method: as §1
# EXPERIMENTAL GLAUCOMA: Unilateral elevation of intraocular pressure (“IOP”) was produced in 56 rats by microinjection of hypertonic saline into episcleral veins, following procedures described in Morrison, J. et al., IOVS (March 1998) 39:526–531. Beginning on the day of IOP elevation, the rats were treated daily with intraperitoneal injections of either a vehicle (23 rats with 50 mM HEPES-buffered saline) or a NAALADase inhibitor (11 rats with 10 mg/kg of Compound A and 22 rats with 10 mg/kg of Compound B). 11 saline treated rats, 11 Compound A treated rats and 11 Compound B treated rats were sacrificed at 8 weeks, and the remaining rats at 12 weeks, after initial IOP elevation.
# as §2, §3
# [4] = 2 weeks survival after transection
# [5] = 4 weeks survival after transection
smiles,measurement,setting,value
"O=C(O)CCC(CCCS)C(=O)O (stereo not shown) [Compound B, 2-(3-sulfanylpropyl)-pentanedioic acid]",remaining axons relative to saline-treated rats,[1]; 2 weeks after transection,twice
same,FIBER NUMBER ± SEM,[1]; [4],"19,550 ± 5,091"
same,PERCENT DIFFERENCE ± SEM in fiber number between transected and normal eye,[1]; [4],75.3 ± 6.6%
same,FIBER NUMBER ± SEM,[1]; [5],"5,162 ± 2,509"
same,PERCENT DIFFERENCE ± SEM in fiber number between transected and normal eye,[1]; [5],93.4 ± 3.1%
same,survival time versus vehicle treated counterparts,[2]; female transgenic HD mice (p-value=0.03),significantly prolonged survival time
same,rotarod performance,"[2]; normal non-HD mice, 30 mg/kg",no effect
same,median survival time,"[2]; transgenic HD mice (N171-82Q), both sexes, not significant versus vehicle (p=0.07)",184 days
same,rotarod performance (time on rotarod) versus vehicle,"[2]; transgenic HD mice, 30 mg/kg from 10 weeks of age",stayed longer on the rotarod
same,FIBER NUMBER ± SEM,[3]; 8 week group,80785 ± 2121
same,PERCENT DIFFERENCE ± SEM in fiber number between glaucoma and normal eye,"[3]; 8 week group, positive = fewer fibers in glaucoma eye",−0.82 ± 2.97%
same,FIBER NUMBER,[3]; 12 week group,90504 ± 1718
same,PERCENT DIFFERENCE in fiber number between glaucoma and normal eye,"[3]; 12 week group, positive = fewer fibers in glaucoma eye",−3.21 ± 2.86%
